The record followed here is PMC9000336, “Development of Bicyclo[3.1.0]hexane-Based A3 Receptor Ligands: Closing the Gaps in the Structure–Affinity Relationships” (Molecules, 2022).

Read-outs that look alike come from different tables or passages of the source.

Experiment [1] concerns the target T1, human adenosine A3 receptor (Homo sapiens, UniProt P0DMS8).
T1 construct: expressed in transfected cells; host or cells: CHO cells (CHOhA3R), gift of Dr. K.-N. Klotz (University of Würzburg); membrane preparation
T1 sequence (P0DMS8 1-318): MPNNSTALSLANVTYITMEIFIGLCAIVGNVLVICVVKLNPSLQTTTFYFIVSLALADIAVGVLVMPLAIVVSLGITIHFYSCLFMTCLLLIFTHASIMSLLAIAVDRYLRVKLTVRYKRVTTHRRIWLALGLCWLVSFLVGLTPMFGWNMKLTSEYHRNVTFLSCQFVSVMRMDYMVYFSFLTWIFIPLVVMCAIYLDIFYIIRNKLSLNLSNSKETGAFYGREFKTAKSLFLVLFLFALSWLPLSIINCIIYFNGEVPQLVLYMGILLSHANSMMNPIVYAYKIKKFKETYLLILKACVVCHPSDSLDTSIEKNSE
Kind of experiment: Radioligand displacement assay, human adenosine A3 receptor ([3H]PSB11, CHOhA3R membranes). It counts as binding. The conditions noted are these: n = 3; for A3 displacement at 1 µM: footnote a: test compound 1 µM. Here is the method:
Chinese hamster ovary (CHO) cells stably expressing the human adenosine A1 receptor (CHOhA1R) were kindly provided by Prof. S. J. Hill and CHO cells stably expressing the human adenosine A3 receptor (CHOhA3R) were a gift from Dr. K.-N. Klotz (University of Würzburg, Germany). Chinese hamster ovary cells stably expressing the human A1-receptor (CHOhA1R) or the human A3-receptor (CHOhA3R) were grown in Dulbecco’s Modified Eagle’s Medium (DMEM) and Ham’s F12 medium (1:1) supplemented with 10% (v/v) newborn calf serum, 50 µg/mL streptomycin, 50 IU/mL penicillin, and 200 µg/mL G418 at 37 °C and 5% CO2. […] All cells were grown to 80–90% confluency and detached from plates by scraping them into 5 mL phosphate-buffered saline. Detached cells were collected and centrifuged at 200 g for 5 min. Pellets derived from 100 15 cm Ø plates were pooled and resuspended in 70 mL of ice-cold 50 mM tris(hydroxymethyl)aminomethane (Tris)-HCl buffer, pH 7.4. A Heidolph Diax 900 homogenizer was used to homogenize the cell suspension. Membranes and the cytosolic fraction were separated by centrifugation at 100,000 g in a Beckman Optima LE-80 K ultracentrifuge (Beckman Coulter, Fullerton, CA, USA) at 4 °C for 20 min. The pellet was resuspended in 35 mL of the Tris-HCl buffer, and the homogenization and centrifugation steps were repeated. Tris-HCl buffer (25 mL) was used to resuspend the pellet, and adenosine deaminase (ADA) was added (0.8 U/mL) to break down endogenous adenosine. Membranes were stored in 250 µL and 500 µL aliquots at −80 °C. Total protein concentrations were measured using the bicinchoninic acid (BCA) method.
A3 Receptor: Membrane aliquots containing 15 µg (CHOhA3R) total protein were incubated in a total volume of 100 µL assay buffer (50 mM Tris-HCl, pH 8.0, supplemented with 10 mM MgCl2, 1 mM EDTA and 0.01% (w/v) CHAPS) at 25 °C for 2 h. Radioligand displacement experiments were performed using six concentrations of competing ligand in the presence of 10 nM [^3H]8-ethyl-4-methyl-2-phenyl-(8R)-4,5,7,8-tetrahydro-1H-imidazo[2.1-i]purin-5-one ([^3H]PSB11). […] Nonspecific binding was determined in the presence of 100 µM NECA. Incubations were terminated by rapid vacuum filtration to separate the bound and free radioligand through prewetted 96-well GF/B filter plates using a PerkinElmer Filtermate-harvester (Perkin Elmer, Groningen, The Netherlands). Filters were subsequently washed 12 times with ice-cold 50 mM Tris-HCl supplemented with 10 mM MgCl2, and 1 mM EDTA, pH 8.0 for CHOhA3R.
(§1) The plates of all four adenosine receptor assays were dried at 55 °C after which MicroscintTM-20-cocktail was added (Perkin Elmer, Groningen, The Netherlands).
(§2) All experimental data were analyzed using the non-linear regression curve fitting program GraphPad Prism 7.0 (GraphPad Software Inc., San Diego, CA, USA). IC50 values obtained from competition displacement binding data were converted into Ki values using the Cheng–Prusoff equation.
(Loss of bound radioactivity is the signal in a displacement assay; it reports binding, not function.)

The target in experiment [2] is T2, human adenosine A2A receptor (Homo sapiens, UniProt P29274).
T2 construct: expressed in transfected cells; host or cells: HEK293 cells (HEK293hA2AR), from Dr. J. Wang (Biogen/IDEC); membrane preparation
T2 sequence (P29274 whole entry): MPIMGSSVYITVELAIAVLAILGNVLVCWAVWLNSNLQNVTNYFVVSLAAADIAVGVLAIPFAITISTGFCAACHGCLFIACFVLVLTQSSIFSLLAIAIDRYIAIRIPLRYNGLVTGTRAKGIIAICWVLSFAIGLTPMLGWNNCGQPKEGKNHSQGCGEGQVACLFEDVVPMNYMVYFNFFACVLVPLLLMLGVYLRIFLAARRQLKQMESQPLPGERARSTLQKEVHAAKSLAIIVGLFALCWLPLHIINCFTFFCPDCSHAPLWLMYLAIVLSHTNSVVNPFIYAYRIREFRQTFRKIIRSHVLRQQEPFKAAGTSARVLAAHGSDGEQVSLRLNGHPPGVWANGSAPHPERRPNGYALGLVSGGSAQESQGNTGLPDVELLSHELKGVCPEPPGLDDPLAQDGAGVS
The experiment can be described thus: Radioligand displacement assay, human adenosine A2A receptor ([3H]ZM241385, HEK293hA2AR membranes). The class given is binding. The conditions noted are these: n = 3; for Ki: footnote a: tested at 1 µM, read-out: A2A Ki (bound, footnote a); for A2A displacement at 10 µM: test compound 10 µM. The protocol: Human embryonic kidney 293 cells stably expressing the human adenosine A2A receptor (HEK293hA2AR) were kindly provided by Dr. J. Wang (Biogen/IDEC, Cambridge, MA, USA), CHO-spap cells stably expressing the wild-type (WT) hA2B receptor (CHO-spap-hA2BR) were kindly provided by S. J. Dowell (GlaxoSmithKline, Brentfort, UK).
All cells were grown to 80–90% confluency and detached from plates by scraping them into 5 mL phosphate-buffered saline. Detached cells were collected and centrifuged at 200 g for 5 min. Pellets derived from 100 15 cm Ø plates were pooled and resuspended in 70 mL of ice-cold 50 mM tris(hydroxymethyl)aminomethane (Tris)-HCl buffer, pH 7.4. A Heidolph Diax 900 homogenizer was used to homogenize the cell suspension. Membranes and the cytosolic fraction were separated by centrifugation at 100,000 g in a Beckman Optima LE-80 K ultracentrifuge (Beckman Coulter, Fullerton, CA, USA) at 4 °C for 20 min. The pellet was resuspended in 35 mL of the Tris-HCl buffer, and the homogenization and centrifugation steps were repeated. Tris-HCl buffer (25 mL) was used to resuspend the pellet, and adenosine deaminase (ADA) was added (0.8 U/mL) to break down endogenous adenosine. Membranes were stored in 250 µL and 500 µL aliquots at −80 °C. Total protein concentrations were measured using the bicinchoninic acid (BCA) method.
Nonspecific binding was determined in the presence of 100 µM adenosine-5-N-ethyluronamide (NECA). Incubations were terminated by rapid vacuum filtration to separate the bound and free radioligand through prewetted 96-well GF/B filter plates using a PerkinElmer Filtermate-harvester (Perkin Elmer, Groningen, The Netherlands). Filters were subsequently washed 12 times with ice-cold 50 mM Tris-HCl, pH 7.4.
as §1, §2

Setting [3] is: footnote a: tested at 1 µM, read-out: A3 Ki (bound, footnote a).

For the compound `COC(=O)Cc1cn(C[C@@]23C[C@@H]2[C@@H](n2cnc4c(N)nc(SC)nc42)[C@H](O)[C@@H]3O)nn1` [Compound 41, Methyl 2-(1-{[(1R,2R,3S,4R,5S)-4-(6-amino-2-methylthio-9H-purin-9-yl)-2,3-dihydroxybicyclo[3.1.0]hex-1-yl]methyl}-1H-1,2,3-triazol-4-yl)acetate], the “A3 displacement at 1 µM” value in experiment [1] was found to be 3% ^a. Further, the Ki in experiment [2] is above 1 µM.
With `COC(=O)CCc1cn(C[C@@]23C[C@@H]2[C@@H](n2cnc4c(N)nc(SC)nc42)[C@H](O)[C@@H]3O)nn1` [Compound 42, Methyl 3-(1-{[(1R,2R,3S,4R,5S)-4-(6-amino-2-methylthio-9H-purin-9-yl)-2,3-dihydroxybicyclo[3.1.0]hex-1-yl]methyl}-1H-1,2,3-triazol-4-yl)propanoate], the Ki in experiment [1] ([3H]PSB11, read-out: A3 Ki ± SEM) was found to be 6.35 ± 0.23 µM. Besides, the “A2A displacement at 10 µM” value in experiment [2] came to 29%.
As for `CSc1nc(N)c2ncn([C@H]3[C@H](O)[C@H](O)[C@]4(Cn5cc(CN)nn5)C[C@H]34)c2n1` [Compound 43, (1R,2R,3S,4R,5S)-4-(6-Amino-2-methylthio-9H-purin-9-yl)-1-{[4-(aminomethyl)-1H-1,2,3-triazol-1-yl]methyl}bicyclo[3.1.0]hexane-2,3-diol], in experiment [1] (test compound 10 µM), the inhibition at 10 µM was determined as 13%. In experiment [2], the “A2A displacement at 10 µM” value is on record as 3%.
Take `CSc1nc(N)c2ncn([C@H]3[C@H](O)[C@H](O)[C@]4(Cn5cc(C(=O)O)nn5)C[C@H]34)c2n1` [Compound 44, 1-{[(1R,2R,3S,4R,5S)-4-(6-Amino-2-methylthio-9H-purin-9-yl)-2,3-dihydroxybicyclo[3.1.0]hex-1-yl]methyl}-1H-1,2,3-triazole-4-carboxylic acid]: the inhibition constant Ki in experiment [1] (setting [3]) and in experiment [2] was above 1 µM throughout.
For `CSc1nc(N)c2ncn([C@H]3[C@H](O)[C@H](O)[C@]4(Cn5cc(CC(=O)O)nn5)C[C@H]34)c2n1` [Compound 45, 2-(1-{[(1R,2R,3S,4R,5S)-4-(6-Amino-2-methylthio-9H-purin-9-yl)-2,3-dihydroxybicyclo[3.1.0]hex-1-yl]methyl}-1H-1,2,3-triazol-4-yl)acetic acid], the inhibitory constant (Ki) in experiment [1] (setting [3]) and in experiment [2] was above 1 µM each time.
As to `CSc1nc(N)c2ncn([C@H]3[C@H](O)[C@H](O)[C@]4(Cn5cc(CCC(=O)O)nn5)C[C@H]34)c2n1` [Compound 46], the Ki in experiment [1] (setting [3]) and in experiment [2] was above 1 µM each time.
Take `CCN(CC)CC.CSc1nc(N)c2ncn([C@H]3[C@H](O)[C@H](O)[C@]4(CNc5c(O)c(=O)c5=O)C[C@H]34)c2n1` [Compound 47, Triethylammonium 2-{[(1R,2R,3S,4R,5S)-4-(6-Amino-2-methylthio-9H-purin-9-yl)-2,3-dihydroxybicyclo[3.1.0]hex-1-yl]methyl}amino-3,4-dioxocyclobut-1-en-1-olate]: in experiment [1], the “A3 displacement at 1 µM” value is given as 6% ^a. The inhibitory constant (Ki) in experiment [2] was above 1 µM.
Consider `CCN(CC)CC.CSc1nc(N)c2ncn([C@H]3[C@H](O)[C@H](O)[C@]4(CNS(=O)(=O)CC(=O)O)C[C@H]34)c2n1` [Compound 48, Triethylammonium 2-(N-{[(1R,2R,3S,4R,5S)-4-(6-amino-2-methylthio-9H-purin-9-yl)-2,3-dihydroxybicyclo[3.1.0]hex-1-yl]methyl}sulfamoyl)acetate], for which the “A3 displacement at 1 µM” value in experiment [1] is on record as 5% ^a. Moreover, the Ki in experiment [2] was above 1 µM.

For orientation: Ki means a measure of affinity in units of concentration, obtained from inhibition or displacement. For orientation: inhibition means the relative decrease from the control value, in per cent. High values mean a strong effect, low ones a weak effect.
